This note sets out measurements from article PMC9916658, “Design and Synthesis of New Quinazolin-4-one Derivatives with Negative mGlu7 Receptor Modulation Activity and Antipsychotic-Like Properties” (International Journal of Molecular Sciences, 2023).

The test system of series [1] is mock T-REx 293 cell line. Put plainly: Off-target T-REx screening, forskolin-induced cAMP in untransfected cells. Format: cell-based. From the text: Off-target (T-Rex screening)
Figure S5. Activity of compounds ALX-065 and ALX-171 in forskolin-induced cAMP accumulation in
untransfected cells of the T-REx 293 line. Similar to reference mGlu7 receptor ADX71743, no effects of the tested […]

The target of series [2] is T1, recombinant human mGlu7 receptor (Homo sapiens, UniProt Q14831).
T1 construct: expressed in transfected cells; host or cells: T-REx 293 (tetracycline-inducible)
Put plainly: NAM mGlu7 activity, forskolin-induced cAMP (HTRF) in T-REx 293 cell line. The series is classed as cell-based. The note with it: forskolin-stimulated cAMP response, 5 µM LSP4-2022 (EC80), T-REx 293 human mGlu7; for inhibition at 10 µM: T-REx-293, 10 μM compound. The method, then: The cell lines with the tetracycline-inducible expression of human metabotropic receptors 4, 7, and 8 were described in detail by Chruścicka et al. (mGlu4 receptor NM_000841, mGlu7 receptor NM_000844.2, and mGlu8 receptor NM_000845). Cells were grown under standard cell culture conditions (37 °C, 5% CO2) in DMEM supplemented with 10% tetracycline-free FBS. The expression was induced through the addition of tetracycline to the culture medium at 0.75 μg/mL.
The determination of the intracellular cAMP through homogeneous time-resolved fluorescence (HTRF) was described in detail previously. Briefly, 48 h before the experiments, the expression of the receptor was induced through the addition of tetracycline to the culture medium; the next day, FBS and L-Glu were removed from the medium. Just before the cAMP measurement, the cells were detached and centrifuged. Then, the cell suspension in Hanks-HEPES (130 mM NaCl, 5.4 mM KCl, 1.8 mM CaCl2, 0.8 mM MgSO4, 0.9 mM NaH2PO4, 20 mM HEPES, and 3.25 mM glucose; pH 7.4) was incubated in the presence of 10 µM forskolin (mGlu7 receptor, 3 µM forskolin), the agonist LSP4-2022 or L-Glu (for mGlu4 and mGlu8), and a compound for 5 min. The intracellular concentration of cyclic AMP was measured by means of a cAMP Gi HTRF kit from Cisbio, according to the manufacturer’s instructions. After 1 h of incubation at room temperature, the fluorescence at 620 nm and 665 nm was read (Tecan Infinite M1000). The results were calculated as the 665 nm/620 nm ratio multiplied by 10^4. Each sample was prepared in triplicate. Data were analyzed using GraphPad Prism version 5.04 for Windows (GraphPad Software, San Diego, USA).
The activity of the compounds was examined in the T-REx 293-cell-line-expressing recombinant human mGlu7 receptor by detecting the level of cyclic AMP in the presence of 5 µM forskolin [7, 41]. […] The substances were incubated with 5 µM LSP4-2022 (EC80).
Firstly, all compounds were screened at 10 μM using three cell lines expressing the mGlu4/7/8 receptor to evaluate selectivity. For the mGlu4 and mGlu8 receptors, glutamic acid was used as an agonist and had good potency. […] VU0155041 and AZ12216052 were used as reference compounds for the mGlu4 and mGlu8 receptors, respectively. The parameter described as “% of inhibition” was introduced to compare the bioactivity of the new compounds to the reference NAM at a 10 μM concentration in the presence of 5 μM LSP4-2022 (0%) and 3 μM forskolin (100%). […] For compounds that passed the screening procedure, the dose–response curve in the presence of LSP4-2022 in 5 μM was evaluated compared to reference NAM ADX71743. Only compounds ALX-063, ALX-065, and ALX-171 (Figure S3, Supplementary Materials) met our conditions regarding bioactivity. All of them were further investigated to determine the EC50 and receptor selectivity. […]
2.1. NAM mGlu7 receptor activity on T-Rex 293 cell line
The activity of compounds was examined on T-REx 293 cell line expressing recombinant human mGlu7 receptor by detecting the level of cyclic AMP in the presence of 5 µM forskolin [14,15]. The cell line was […]
incubated with 5 µM of LSP4-2022 (EC80).

The nature of series [3]: Kinetic solubility assay in HBSS buffer. The series is classed as physicochemical. The note with it: aqueous buffer, kinetic from dmso stock; Hanks-HEPES (HBSS buffer), pH 7.4; read-out: KS (kinetic solubility). The method, then: The kinetic solubility assay was performed to determine the solubility of the compounds in the in vitro assay conditions. The assay investigated the solubility based on the precipitation process in the HBSS buffer. For the preparation of the assay buffer, the following compounds were dissolved in 800 mL purified water: • − 130 mM sodium chloride, NaCl (7.600 g); • − 5.4 mM potassium chloride, KCl (0.403 g); • − 0.8 mM magnesium sulfate, MgSO4 × 7H2O (0.197 g); • − 0.9 mM sodium phosphate monobasic, NaH2PO4 × 2H2O (0.140 g); • − 25 mM D-glucose (4.500 g); • − 20 mM HEPES sodium salt (5.210 g).
The buffer was adjusted to pH 7.4, and the following compound was added to the mixture: • − 1.8 mM calcium chloride, CaCl2 × 2H2O (0.265 g).
The total volume was adjusted to 1000 mL.
The investigated compounds were diluted (in triplicate) with the HBSS buffer at pH 7.4 to a final concentration of 500 μM.
The mixture was shaken on a filter plate at 500 rpm for 1.5 h at RT. After incubation, the filter plate was placed inside a vacuum manifold and filtrated. Samples were collected and the concentration of the filtrate was determined spectrophotometrically by measuring the UV–VIS absorption spectrum. Concentrations were calculated based on equations resulting from the calibration curves (in duplicates, 8 calibration points, dilution Factor ×2, 500 µM → 3.91 µM, including blank sample).

Values after ≈ are worked out from the molar mass of the structure shown.

T1 sequence (Q14831 35-915): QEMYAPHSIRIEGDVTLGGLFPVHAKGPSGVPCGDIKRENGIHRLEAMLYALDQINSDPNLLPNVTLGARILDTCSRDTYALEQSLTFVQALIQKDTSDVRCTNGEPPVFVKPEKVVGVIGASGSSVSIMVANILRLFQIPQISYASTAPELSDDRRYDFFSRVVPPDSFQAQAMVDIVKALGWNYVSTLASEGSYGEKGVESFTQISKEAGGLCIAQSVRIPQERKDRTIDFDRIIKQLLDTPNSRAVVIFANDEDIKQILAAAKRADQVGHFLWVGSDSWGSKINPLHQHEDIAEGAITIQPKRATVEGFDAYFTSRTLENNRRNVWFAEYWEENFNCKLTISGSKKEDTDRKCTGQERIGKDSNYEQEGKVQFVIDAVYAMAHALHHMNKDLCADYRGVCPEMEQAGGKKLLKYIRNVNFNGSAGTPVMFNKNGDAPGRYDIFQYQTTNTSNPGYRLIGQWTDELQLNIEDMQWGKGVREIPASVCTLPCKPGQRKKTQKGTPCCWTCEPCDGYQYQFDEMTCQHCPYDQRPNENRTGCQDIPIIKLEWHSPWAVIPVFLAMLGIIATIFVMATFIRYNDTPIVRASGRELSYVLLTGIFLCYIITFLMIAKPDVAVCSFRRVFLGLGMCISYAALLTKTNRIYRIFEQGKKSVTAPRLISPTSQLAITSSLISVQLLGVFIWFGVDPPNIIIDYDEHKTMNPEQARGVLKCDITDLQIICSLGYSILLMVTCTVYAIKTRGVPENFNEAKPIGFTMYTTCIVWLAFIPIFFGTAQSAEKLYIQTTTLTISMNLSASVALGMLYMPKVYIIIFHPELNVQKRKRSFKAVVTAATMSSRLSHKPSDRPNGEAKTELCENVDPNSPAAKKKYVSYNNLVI

As to `CCc1nc2c(o1)CC(c1ccc(C)cc1C)CC2=O` (stereo not shown) [ADX71743, reference compound], the “effect on forskolin-induced cAMP accumulation in untransfected cells” value (from here on “effect”) in series [1] is on record as “no effects”. In addition, the inhibition at 10 µM in series [2] stood at 42.6%. The solubility (kinetic) at 1.5 h in series [3] was 510 µM (≈ 137 µg/mL).
For the compound `Cn1c(-c2ccccc2Cl)nc2ccc(-c3ccccc3)cc2c1=O` [ALX-065, 2-(2-chlorophenyl)-3-methyl-6-phenylquinazolin-4(3H)-one], the “effect” value in series [1] was “no effects”. The inhibition at 10 µM in series [2] turned out to be 26.5 ± 11.8%. Further, the solubility (kinetic) at 1.5 h in series [3] was 6.88 µM (≈ 2.39 µg/mL).
Turning to `COc1cccc(-c2ccc3nc(-c4ccccc4Cl)n(C)c(=O)c3c2)c1OC` [ALX-171, 2-(2-chlorophenyl)-6-(2,3-dimethoxyphenyl)-3-methylquinazolin-4(3H)-one], in series [1], the “effect” value was “no effects”. Further, in series [2] (10 μM compound), the “Inhibition (%)” value is recorded as 30.8 ± 6.44%. In series [2], the inhibition at 10 µM worked out at 30.8 ± 6.44%. For the same compound, the solubility (kinetic) at 1.5 h in series [3] amounted to 15.2 µM (≈ 6.2 µg/mL).
